Legend:
[1] = test system: gram-positive bacteria; settings: against gram-positive bacteria; cited from earlier work
[2] = test system: mice bearing Ascites Sarcoma 180 tumor; experiment: D.T.H. response to picryl chloride (ear thickness) in tumor-bearing mice; assay type: in vivo; settings: for Increase in ear thickness: 24 h after picryl chloride challenge; for T/C (%): ear thickness increase vs control = 100%
Procedure: In mice bearing Ascites Sarcoma 180 tumor, the effect of actinonin on the D.T.H. response to picryl chloride was investigated. 10^6 Cells of Ascites Sarcoma 180 were transplanted intraperitoneally into CDF1 mice (12-week-old, female, 5 mice per group). The day of this transplantation was designated as Day 0. […] Then, 5.0 mg/kg, 0.5 mg/kg, 0.05 mg/kg or 0.005 mg/kg of actinonin dissolved in physiological saline was orally administered once daily from Day 1 to Day 8, except that on Days 5 and 6 the test compound was not administered. During this period of Day 1 to Day 8, the control group of mice (untreated) was given physiological saline only. On day 8, the right ear was challenged with 20 μl of a 1% olive oil solution of picryl chloride which was absorbed to an absorbent cotton mass cut to a size of 10 mm×5 mm×1 mm. Twenty-four hours after the challenge, the thickness of the ear was measured with a dial gauge. On the other hand, the control animals (untreated) were challenged on Day 8 with picryl chloride and physiological saline in accordance with the same procedure, but without having been treated with the test compound, and the thickness of the ear of the control animals was measured in the same way. The increase in the thickness of ear for the control group of mice was evaluated to be 100%. The increase (T) in the thickness of the ear for the group of mice treated with the test compound was compared with that (C) for the control group of mice to evaluate the rate (T/C, %) of the increase in the thickness of the ear, whereby the cellular immunity-potentiating activity of the compound under test was estimated.

[3] = test system: CDF1 mice immunized with sheep red blood cells (SRBC); experiment: Delayed Type Hypersensitivity (D.T.H.) footpad test in normal mice immunized with SRBC; assay type: in vivo; settings: for Increase in footpad thickness: 24 h after SRBC challenge; for T/C (%): footpad thickness increase vs control = 100%
Procedure: Effect of actinonin on the cellular immunity was investigated by measuring the Delayed Type Hypersensitivity (D.T.H.) (see […] and T. E. Miller: "J. Exp. Med.", 139, 1529-1539 (1974)) using mice immunized with sheep red blood cells (SRBC) as the antigen inoculated to the footpad of the mice. Thus, 10^8 SRBC suspended in 0.05 ml of physiological saline was inoculated by subcutaneous injection into a subdermal site of a hind footpad of CDF1 mice (6 mice per group, female, 8-weeks old) to make immunization. At the time of this immunization, an aqueous solution containing 5 mg/kg, 0.5 mg/kg, 0.05 mg/kg or 0.005 mg/kg of actinonin was administered intraperitoneally at a single dose to each test mice. 4 Days after the immunization, 10^8 SRBC in 0.05 ml of physiological saline were injected subcutaneously into the other hind footpad of the test mice for secondary challenge of the D.T.H. response. 24 Hours after the challenge, the thickness (in mm) of the hind footpad having received the challenge of SRBC was measured with vernier caliper. At the same time, the thickness of footpad of control mice which had received the injection of the SRBC and physiological saline without the administration of the test compound was also measured in each mouse. The increase in footpad thickness of the animals treated was calculated by the following equation: [formula] The effect of actinonin on the DTH response was evaluated by the following equation: [formula] […] In this way, the cell-mediated immunity potentiating effect of the test compound was evaluated. For comparison purpose, bestatin was also tested in the same manner as above.

[4] = test system: mice; experiment: Acute toxicity test in mice by intravenous injection; assay type: in vivo; settings: i.v. dosage of 400 mg/kg
Procedure: Acute toxicity tests in mice by intravenous injection have shown that no deaths are caused by the actinonin compound of the formula (I) at an i.v. dosage of 400 mg/kg. […] The actinonin compound of the formula (I) is therefore useful as an immunopotentiator and anti-tumor immunomodulator or as adjuvants to various chemotherapeutic agents for use in the treatment of carcinomas.

[5] = 0.5 mg/kg orally once daily Day 1 to Day 8 (not Days 5, 6)
[6] = 0.5 mg/kg i.p. single dose at immunization

| Structure (SMILES) | Antibacterial activity [1] | Increase in ear thickness ([2]; 0.005 mg/kg orally once daily Day 1 to Day 8 (not Days 5, 6)) | T/C (%) ([2]; 0.005 mg/kg orally once daily) | Increase in ear thickness ([2]; 0.05 mg/kg orally once daily Day 1 to Day 8 (not Days 5, 6)) | T/C (%) ([2]; 0.05 mg/kg orally once daily) | Increase in ear thickness [2, 5] | T/C (%) ([2]; 0.5 mg/kg orally once daily) | Increase in ear thickness ([2]; 5 mg/kg orally once daily Day 1 to Day 8 (not Days 5, 6)) | T/C (%) ([2]; 5 mg/kg orally once daily) | Increase in footpad thickness ([3]; 0.005 mg/kg i.p. single dose at immunization) [× 0.1 mm] | T/C (%) ([3]; 0.005 mg/kg i.p. single dose) | Increase in footpad thickness ([3]; 0.05 mg/kg i.p. single dose at immunization) [× 0.1 mm] | T/C (%) ([3]; 0.05 mg/kg i.p. single dose) | Increase in footpad thickness [3, 6] [× 0.1 mm] | T/C (%) ([3]; 0.5 mg/kg i.p. single dose) | Increase in footpad thickness ([3]; 5 mg/kg i.p. single dose at immunization) [× 0.1 mm] | T/C (%) ([3]; 5 mg/kg i.p. single dose) | Deaths in acute toxicity test [4] |
| --- | --- | --- | --- | --- | --- | --- | --- | --- | --- | --- | --- | --- | --- | --- | --- | --- | --- | --- |
| CCCCC[C@H](CC(=O)NO)C(=O)N[C@H](C(=O)N1CCC[C@H]1CO)C(C)C [Actinonin] | exhibits antibacterial activity | 4.70 ± 0.67 × 10^-3 cm | 96.9 | 6.80 ± 0.84 × 10^-3 cm | 140.2 | 7.08 ± 1.66 × 10^-3 cm | 146.0 | 4.60 ± 1.19 × 10^-3 cm | 94.8 | 9.2 ± 1.15 | 107 | 10.4 ± 1.40 | 121 | 11.4 ± 1.80 | 133 | 11.9 ± 1.44 | 138 | no deaths |
| CC(C)C[C@H](NC(=O)[C@@H](O)[C@H](N)Cc1ccccc1)C(=O)O [Bestatin, reference compound] |  |  |  |  |  | 6.75 ± 1.51 × 10^-3 cm | 139.2 |  |  |  |  |  |  | 12.8 ± 1.47 | 149 |  |  |  |
